In test [1] the target is T1, Arabidopsis ABAR/CHLH (H subunit of Mg-chelatase) (Arabidopsis thaliana, UniProt Q9FNB0).
T1 construct: 6xHis; made in house; host or cells: Pichia methanolica (Pichia Methanolica Expression kit, Invitrogen)
T1 sequence (Q9FNB0 50-1381): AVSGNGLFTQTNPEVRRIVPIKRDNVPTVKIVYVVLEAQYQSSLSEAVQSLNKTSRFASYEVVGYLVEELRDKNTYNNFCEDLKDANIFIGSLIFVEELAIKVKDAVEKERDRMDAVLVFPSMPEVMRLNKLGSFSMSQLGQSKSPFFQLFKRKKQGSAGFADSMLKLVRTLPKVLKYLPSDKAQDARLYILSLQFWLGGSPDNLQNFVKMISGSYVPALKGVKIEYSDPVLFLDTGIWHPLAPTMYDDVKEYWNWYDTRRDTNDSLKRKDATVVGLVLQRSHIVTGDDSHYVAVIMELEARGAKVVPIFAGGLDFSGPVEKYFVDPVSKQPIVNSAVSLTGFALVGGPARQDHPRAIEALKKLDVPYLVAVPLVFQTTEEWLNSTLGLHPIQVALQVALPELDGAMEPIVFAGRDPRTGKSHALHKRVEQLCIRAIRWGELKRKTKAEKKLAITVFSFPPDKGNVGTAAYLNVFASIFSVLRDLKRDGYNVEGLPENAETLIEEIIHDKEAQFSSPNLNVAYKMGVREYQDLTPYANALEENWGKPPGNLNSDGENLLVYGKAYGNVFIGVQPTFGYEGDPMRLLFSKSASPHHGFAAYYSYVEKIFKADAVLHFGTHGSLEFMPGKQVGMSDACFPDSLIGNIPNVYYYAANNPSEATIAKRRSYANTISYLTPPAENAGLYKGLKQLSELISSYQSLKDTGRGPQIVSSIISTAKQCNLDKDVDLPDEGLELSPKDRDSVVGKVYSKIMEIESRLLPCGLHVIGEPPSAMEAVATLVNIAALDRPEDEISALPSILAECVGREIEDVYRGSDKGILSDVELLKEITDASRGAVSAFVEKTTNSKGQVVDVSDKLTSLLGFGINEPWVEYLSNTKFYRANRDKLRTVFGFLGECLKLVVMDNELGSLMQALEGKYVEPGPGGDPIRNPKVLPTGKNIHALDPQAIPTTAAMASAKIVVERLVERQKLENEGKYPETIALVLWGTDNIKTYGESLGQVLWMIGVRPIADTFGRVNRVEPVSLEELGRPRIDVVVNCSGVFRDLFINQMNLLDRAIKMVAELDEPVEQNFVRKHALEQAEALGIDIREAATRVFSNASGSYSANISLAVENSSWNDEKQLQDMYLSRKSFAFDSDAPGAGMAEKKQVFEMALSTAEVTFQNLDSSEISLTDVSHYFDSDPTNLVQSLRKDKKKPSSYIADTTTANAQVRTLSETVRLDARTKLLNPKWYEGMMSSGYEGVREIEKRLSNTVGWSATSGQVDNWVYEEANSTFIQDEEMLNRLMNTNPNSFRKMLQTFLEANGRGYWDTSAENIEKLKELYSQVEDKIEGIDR
In words: ABA binding assay with purified yeast-expressed ABAR/CHLH. The settings on record: purified ABAR, 30 nM [3H]ABA, 1 to 1000-fold molar excess of competitor. The protocol:
Full-length ABAR/CHLH coding sequence was PCR-amplified with forward primer 5′-[…]-3′ (SEQ ID NO:30) and reverse primer 5′-[…]-3′ (SEQ ID NO:31). The recombinant ABAR/CHLH was expressed in yeast as a fusion protein with a 6×His (SEQ ID NO:32) tag by using Pichia Methanolica Expression kit (Invitrogen) and the fusion protein was affinity-purified according to manufacturer's instructions.
The ABA-binding activity of ABAR was assayed according to the previously described procedures (Zhang, D. P. et al., Plant physiol. 128:714-725 (2002)) with modifications. The binding medium (medium A) contained 50 mM Tris-HCl (pH 7.0), 2 mM MgCl2, 1 mM CaCl2, and 250 mM mannitol. The medium for extracting the Arabidopsis natural ABAR/CHLH protein (medium B) was the medium A supplemented with 2 mM 1,4-dithiothreitol (DTT), 1 mM phenylmethyl sulfonyl fluoride (PMSF), […] leupeptin, and […] pepstin A but minus 250 mM mannitol. [^3H](+)ABA (American Radiolabeled Chemicals, 2.37×10^12 Bq mmol^−1, purity 98.4%) at 30 nM, or at a step gradient of concentrations from 0 to 70 nM (when analyzing ABA binding kinetics, see FIG. 1a, d1), together with 2 μg purified yeast-expressed ABAR/CHLH protein or 50 μg proteins of the crude extracts from two-week-old Arabidopsis seedlings, was added into the medium A. The total volume for the binding assays was adjusted to 200 μl. The mixtures were incubated at 25° C. for 30 min, and then quickly placed on ice. Following the addition of 100 μl 0.5% (w/v) Dextran T70-coated charcoal (DCC) to remove the free [^3H]ABA by adsorption, the mixtures were maintained on ice for 5 min, and then centrifuged to remove DCC before the radioactivity in the supernatant was counted. The specific binding was determined by the difference between the radioactivity bound to the immuno-purified ABAR protein or crude extracts of Arabidopsis seedlings incubated only with [^3H]ABA (total binding) and radioactivity bound in the presence of 1,000-fold molar excess of unlabeled (+)-ABA (Sigma; non-specific binding. Non-specific binding in all the assays was lower than 10% of the total binding, see FIG. 1a, d1). The unlabeled ABA was added into the incubation medium at the same time with [^3H]ABA. The ABA-binding activity of the crude ABA-binding protein from Arabidopsis seedling was expressed as the number of nanomoles of [^3H]ABA specifically bound per gram of protein, and that of the immuno-purified ABAR protein as the number of moles of [^3H]ABA per mole of protein. The stereo-specificity of the ABA-binding was assayed as described previously (Zhang, D. P. et al., Plant physiol. 128:714-725 (2002)). […] The conditions of incubation were the same as described above (the incubation medium containing 30 nM [^3H]ABA), and the two ABA isomers and (+)-ABA were assayed in the concentrations ranging from 1 to 1000-fold molar excess of [^3H]ABA.

Test [2] concerns gl1 plants. In words: Treatments with norflurazon and chloramphenicol. The test is classed as in vivo, Arabidopsis thaliana. Here is the method: The reagent chloramphenicol (Sigma; CP) was diluted from 100 mg/ml stock solutions prepared in ethanol to 150 μg/ml, and equivalent volume of ethanol was included in the chloramphenicol-free-treated controls. For norflurazon (Sigma; Nf) treatment, Nf was diluted from 100 mM stock solutions prepared in DMSO to 3 μM, and equivalent volume of DMSO was included in the Nf-free-treated controls. The 3-week-old seedlings were treated with CP or Nf by irrigation of either 150 μg/ml CP or 3 μM Nf dissolved both in distilled water. Stomatal response to exogenous (±)-ABA was assayed at different time intervals after the application of the reagents, and the amounts of ABAR/CHLH protein were immuno-determined at the same time.
ABA contents in tissues were assayed by radioimmunoassay method as described previously (Zhang, D. P. et al., Plant physiol. 128:714-725 (2002)).

In test [3] the target is T2, natural ABAR/CHLH protein (Arabidopsis thaliana, UniProt Q9FNB0).
T2 construct: 50 μg proteins of the crude extracts from two-week-old Arabidopsis seedlings; from tissue; host or cells: crude extracts of two-week-old Arabidopsis seedlings / leaves of gl1 (WT), RNAi line 12 and overexpressor line 1
T2 sequence (Q9FNB0 50-1381): T1 sequence (Q9FNB0 50-1381)
In words: Pull-down assay with anti-ABAR serum. The test is classed as binding. The note with it: 30 nM [3H](+)ABA. The protocol: The pull down assay was done as follows to detect ABA binding to the natural ABAR/CHLH protein. Total proteins were extracted from two-week-old Arabidopsis seedlings with the medium C composed of the medium B supplemented with 250 mM mannitol. The crude extracts (3 mg total proteins) was incubated by gently shaking in the medium C (400 μl) containing 30 nM [^3H](+)ABA at 4° C. for 2 h, and the anti-ABAR^N serum (10 μg, described below) was added into the medium for a further incubation at 4° C. for 2 h, and then the medium was supplemented by 100 μl 25% (v/v) protein A-agarose (Santa Cruz) for a final incubation at 4° C. for 2 h. Following the incubation, protein A-agarose was recovered by a brief centrifugation and washed with 1 ml medium C. The pellets were resuspended in […] water and mixed with scintillation fluid before the radioactivity (d.p.m., disintegrations per minute) of the bound [^3H](+)ABA was measured.
Three independent control experiments were performed for the pull down assays. A control was done by addition of the same amounts of mouse preimmune serum instead of the antiserum to the medium of the above-described pull down assay in the extracts from the leaves of wild-type plants. […]

In test [4] the test system is inducible RNAi transgenic plants (ABAR/CHLH expression). In words: Induction of RNAi by 17beta-estradiol in inducible RNAi lines. The test is classed as in vivo, Arabidopsis thaliana. The settings on record: 10 μM 17beta-estradiol. From the text: These constructs were introduced in Agrobacterium tumefaciens GV3101 strain and transformed into plants by floral infiltration. The homozygous T3 seeds of the transgenic plants were used for analysis. […] The seeds of the gun4-1, gun5-1 and cch mutants were a generous gift from Dr. J. Chory (The Salk Institute, La Jolla, Calif.). The seeds of the mutants hy1-1 (ABRC#: CS67), hy2-1 (CS68) and chl-2 (CS3362) were obtained from the Arabidopsis Biological Resource Center (ABRC). Except for the mutants hy1-1 and hy2-1 with the ecotype Ler as background, all the other mutants were isolated from the ecotype Columbia. Plants were grown in a growth chamber at 20-21° C. on Murashige-Skoog (MS) medium at about 80 μmol photons m^−2 s^−1, or in compost soil at about 120 μmol photons m^−2 s^−1 over a 16-h photoperiod.
For the treatment of seedlings of the inducible RNAi lines with 17beta-estradiol (Sigma) to induce down-regulation of ABAR/CHLH expression, 17beta-estradiol was diluted from 10 mM stock solution prepared in dimethyl sulfoxide (DMSO) to 10 μM, and equivalent volume of DMSO was included in the 17beta-estradiol-free-treated controls. […] The amounts of ABAR/CHLH protein were also determined at the same time by immunoblotting. […] The expression of ABAR/CHLH and some ABA-responsive genes was assessed by real-time PCR.

On to `CC(C=CC1(O)C(C)=CC(=O)CC1(C)C)=CC(=O)O` (stereo not drawn) [trans-ABA], for which the “displacement of [3H](+)-ABA binding” value in test [1] is on record as “not”.

For `CC1=CC(=O)CC(C)(C)C1(O)/C=C/C(C)=C\C(=O)O` (single isomer, unassigned; (-)) [(−)-ABA], in test [1], the “displacement of [3H](+)-ABA binding” value was “not”.

For `CNc1cnn(-c2cccc(C(F)(F)F)c2)c(=O)c1Cl` [norflurazon], the ABA contents entry in test [2] (Nf-treated plants, 3 μM by irrigation) is listed as “remained unchanged”.

Turning to `O=C(N[C@H](CO)[C@H](O)c1ccc([N+](=O)[O-])cc1)C(Cl)Cl` [chloramphenicol], the ABA contents result in test [2] (CP-treated plants, 150 μg/ml by irrigation) is “remained unchanged”. For the same compound, the ABAR levels entry in test [2] (after CP treatment (FIG. 9)) was “decrease”. Besides, the “stomatal movement response to ABA” value in test [2] (after CP treatment (FIG. 9), 10 μM (±)-ABA) is listed as “ABA-insensitive”.

In the case of (+)-ABA, the “displacement of [3H](+)-ABA binding” value in test [1] is “efficient displacement”. Also, the “displacement of [3H]ABA / stereospecificity of pulled-down ABA-binding activity” value in test [3] is on record as “highly stereospecific”.

As to `C[C@]12CC[C@@H]3c4ccc(O)cc4CC[C@H]3[C@@H]1CC[C@@H]2O` [17beta-estradiol], the entries for the “ABAR transcript and product / ABAR levels” value in test [4] and in test [4] (listed as 17beta-oestradiol) were “significant decline” and “decrease”, respectively.

Values taken from patent US20090044291A1, “DROUGHT-RESISTANT PLANTS AND METHOD FOR PRODUCING THE PLANTS” (D-Helix, priority 2006, published 2009).
